Test results: ChEMBL document CHEMBL1201862, “PubChem BioAssay data set” (2004)
“And” between values parts separate entries of the source, which are not always exact repeats. Equal values may be shown once.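 96-well plates; 48 h exposure; 5 concentrations. Endpoints by linear interpolation between flanking doses. Not reached: highest tested concentration assigned. Abbreviation: GI50, concentration required for 50% inhibition of growth.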 The source made the active and inactive calls. No stated cut-off is given here; in the data, active = GI50 up to about 1.1 µM and inactive = higher.

Legend:
Assay in all cases: NCI tumour cell line growth inhibition, 48 h
HOP-18 = system: HOP-18
OVCAR-8 = system: OVCAR-8
SW-620 = system: SW-620
LOX IMVI = system: LOX IMVI
M14 = system: M14
RXF 631 = system: RXF 631
SK-OV-3 = system: SK-OV-3
DMS-273 = system: DMS-273
K562 = system: K562
OVCAR-5 = system: OVCAR-5
OVCAR-4 = system: OVCAR-4
SF-295 = system: SF-295
SNB-78 = system: SNB-78
UACC-62 = system: UACC-62
M19-MEL = system: M19-MEL
LXFL 529 = system: LXFL 529
EKVX = system: EKVX
CCRF-CEM = system: CCRF-CEM
A549 = system: A549
HL-60 = system: HL-60
HT-29 = system: HT-29
SNB-75 = system: SNB-75
786-0 = system: 786-0
COLO 205 = system: COLO 205
KM12 = system: KM12
IGROV-1 = system: IGROV-1
RPMI-8226 = system: RPMI-8226
SK-MEL-5 = system: SK-MEL-5
NCI-H226 = system: NCI-H226
NCI-H23 = system: NCI-H23
SF-268 = system: SF-268
RXF 393 = system: RXF 393
SK-MEL-28 = system: SK-MEL-28
DLD-1 = system: DLD-1
UO-31 = system: UO-31
DMS-114 = system: DMS-114
U-251 = system: U-251
SF-539 = system: SF-539
SR = system: SR
ACHN = system: ACHN
MOLT-4 = system: MOLT-4
SNB-19 = system: SNB-19
TK-10 = system: TK-10
OVCAR-3 = system: OVCAR-3
BT-549 = system: BT-549
KM-20L2 = system: KM-20L2
HCC 2998 = system: HCC 2998
Hs-578T = system: Hs-578T
MDA-N = system: MDA-N
A498 = system: A498
UACC-257 = system: UACC-257
NCI/ADR-RES = system: NCI/ADR-RES
PC-3 = system: PC-3
SN12C = system: SN12C
HCT-116 = system: HCT-116
MDA-MB-435 = system: MDA-MB-435
XF498 = system: XF498

Compound: O=C1C(c2ccccc2)=[N+]([O-])c2cc([N+](=O)[O-])c(/C(Cl)=C/c3ccccc3)cc21
- GI50 (HOP-18): 24.1 µM (inactive)
- GI50 (OVCAR-8): 16.1 µM (inactive)
- GI50 (SW-620): 17.3 µM (inactive)
- GI50 (LOX IMVI): 13.7 µM (inactive)
- GI50 (M14): 16 µM (inactive)
- GI50 (RXF 631): 6.7 µM (inactive)
- GI50 (SK-OV-3): > 100 µM (inactive)
- GI50 (DMS-273): 18.1 µM (inactive)
- GI50 (K562): 13.8 µM (inactive)
- GI50 (OVCAR-5): 31.2 µM (inactive)
- GI50 (OVCAR-4): 13.1 µM (inactive)
- GI50 (SF-295): 53.3 µM (inactive)
- GI50 (SNB-78): 29.4 µM (inactive)
- GI50 (UACC-62): 30.6 µM (inactive)
- GI50 (M19-MEL): 15.3 µM (inactive)
- GI50 (LXFL 529): > 10 µM (inactive)
- GI50 (EKVX): 25.7 µM (inactive)
- GI50 (CCRF-CEM): 10.5 µM (inactive)
- GI50 (A549): 40.1 µM (inactive)
- GI50 (HL-60): 4.06 µM (inactive)
- GI50 (HT-29): 22.3 µM (inactive)
- GI50 (SNB-75): 31.4 µM (inactive)
- GI50 (786-0): 29.9 µM (inactive)
- GI50 (COLO 205): 17.3 µM (inactive)
- GI50 (KM12): 22.8 µM (inactive)
- GI50 (IGROV-1): 23.2 µM (inactive)
- GI50 (RPMI-8226): 13.9 µM (inactive)
- GI50 (SK-MEL-5): 20.4 µM (inactive)
- GI50 (NCI-H226): 31.2 µM (inactive)
- GI50 (NCI-H23): 22.7 µM (inactive)
- GI50 (SF-268): 35.2 µM (inactive)
- GI50 (RXF 393): 22.9 µM (inactive)
- GI50 (SK-MEL-28): 27.4 µM (inactive)
- GI50 (DLD-1): 14.2 µM (inactive)
- GI50 (UO-31): 41.8 µM (inactive)
- GI50 (DMS-114): 8.97 µM (inactive)
- GI50 (U-251): 18.6 µM (inactive)
- GI50 (SF-539): 23.8 µM (inactive)
- GI50 (SR): 17.9 µM (inactive)
- GI50 (ACHN): 24.5 µM (inactive)
- GI50 (MOLT-4): 13.9 µM (inactive)
- GI50 (SNB-19): 31.3 µM (inactive)
- GI50 (TK-10): 33.7 µM (inactive)
- GI50 (OVCAR-3): 13.5 µM (inactive)

Compound: COC1=C(N)C(=O)c2nc(-c3nc(C(=O)O)c(C)c(-c4ccc(OC)c(OC)c4O)c3N)ccc2C1=O [STREPTONIGRIN]
- GI50 (BT-549): 0.00526 µM (active)
- GI50 (KM-20L2): 10 nM (active) and 19 nM (active)
- GI50 (HOP-18): < 0.01 µM (active)
- GI50 (SW-620): 6.03 nM (active) and 10 nM (active)
- GI50 (LOX IMVI): 0.00581 µM (active)
- GI50 (SK-OV-3): 0.00826 µM (active)
- GI50 (DMS-273): < 0.01 µM (active)
- GI50 (HCC 2998): 5.65 nM (active) and < 10.9 nM (active)
- GI50 (SNB-78): 19.4 nM (active) and < 10 nM (active)
- GI50 (M19-MEL): 0.01 µM (active)
- GI50 (LXFL 529): 0.01 µM (active)
- GI50 (CCRF-CEM): < 10 nM (active) and 6.01 nM (active)
- GI50 (A549): 0.00505 µM (active)
- GI50 (Hs-578T): < 0.01 µM (active)
- GI50 (MDA-N): 0.00792 µM (active)
- GI50 (SK-MEL-5): < 10 nM (active) and 5.81 nM (active)
- GI50 (A498): 8.11 nM (active) and 12.6 nM (active)
- GI50 (NCI-H226): < 10 nM (active) and 5.73 nM (active)
- GI50 (UACC-257): 7.87 nM (active) and < 10.7 nM (active)
- GI50 (DLD-1): 0.0131 µM (active)
- GI50 (NCI/ADR-RES): 0.00893 µM (active)
- GI50 (PC-3): 0.0071 µM (active)
- GI50 (DMS-114): < 0.01 µM (active)
- GI50 (SN12C): 0.00785 µM (active)
- GI50 (HCT-116): 0.00619 µM (active)
- GI50 (MDA-MB-435): < 10 nM (active) and 8.59 nM (active)
- GI50 (XF498): < 0.01 µM (active)
